Source: PubChem BioAssay (NCI)
Where “and” joins values, the source holds several entries; their conditions need not be identical. Equal values may be shown once.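 All cell lines were grown in 96-well plates and treated with compound for 48 hours. GI50: concentration for 50% inhibition of growth. At the TGI there is no net growth.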 Where a SMILES comes first, the peptide text is derived from it. The star is where a group is joined. Cbz = O=C(OCc1ccccc1)*

Assays:
Assay in all cases: DTP human tumour cell line panel, 48 h
SW-620 colon = test system: SW-620 colon
NCI-H460 lung = test system: NCI-H460 lung
MOLT-4 leukemia = test system: MOLT-4 leukemia
786-0 renal = test system: 786-0 renal
SK-OV-3 ovarian = test system: SK-OV-3 ovarian
SR leukemia = test system: SR leukemia
ACHN renal = test system: ACHN renal
SK-MEL-5 melanoma = test system: SK-MEL-5 melanoma
U251 CNS = test system: U251 CNS
SK-MEL-2 melanoma = test system: SK-MEL-2 melanoma
SK-MEL-28 melanoma = test system: SK-MEL-28 melanoma
SN12C renal = test system: SN12C renal
HOP-92 NSCLC = test system: HOP-92 NSCLC

SMILES	TGI (SW-620 colon) [µM]	TGI (NCI-H460 lung)	TGI (MOLT-4 leukemia) [µM]	TGI (786-0 renal) [µM]	TGI (SK-OV-3 ovarian)	TGI (SR leukemia)	TGI (ACHN renal)	TGI (SK-MEL-5 melanoma) [µM]	TGI (U251 CNS) [µM]	TGI (SK-MEL-2 melanoma)	TGI (SK-MEL-28 melanoma)	TGI (SN12C renal)	TGI (HOP-92 NSCLC) [µM]	GI50 (NCI-H460 lung) [µM]	GI50 (MOLT-4 leukemia) [µM]	GI50 (SK-OV-3 ovarian) [µM]	GI50 (SR leukemia) [µM]	GI50 (ACHN renal) [µM]	GI50 (SK-MEL-28 melanoma) [µM]	GI50 (SN12C renal) [µM]
NCCCN(CCCN)CCc1cn(C(=O)c2ccccc2)cn1	38.2	39 µM	17.9	25.6	27.5 µM	13.9 µM	19.2 µM	21	30.1	24.7 µM	33.2 µM	26.2 µM	13.2	–	–	–	–	–	–	–
CC(=O)c1ccc2c(c1)C(=O)c1sc(C(C)=O)cc1C2=O	50	7.31 µM and 11 µM	–	50	14.3 µM and 21.4 µM	50 µM and > 100 µM	1.54 µM and 1.5 µM	1.89	50	4.23 µM and 2.98 µM	14.2 µM and 3.61 µM	2.18 µM and 4.76 µM	50	0.362	0.0664	5.66	0.0247	0.405	1.85	0.953
CC(=O)SC(C[N+](=O)[O-])c1ccc2c(c1)OCO2 (configuration not stated)	11.9	26.2 µM	19.9	8.95	18 µM	7.27 µM	21.9 µM	19.9	13	14.8 µM	9.78 µM	14.7 µM	34.6	–	–	–	–	–	–	–
CCOC(=O)CCC(NC(=O)C(Cc1ccccc1)NC(=O)OCc1ccccc1)C(=O)OCC (stereo not drawn) (Cbz-Phe-Glu(OEt)-OEt; configuration not given here)	34.9	38.5 µM	> 71.3	32	30.5 µM	> 68.8 µM	31.2 µM	28.8	28.9	48 µM	33.2 µM	37.7 µM	36.3	–	–	–	–	–	–	–
Oc1c(Br)ccc2cccnc12	> 45.6	23.2 µM	> 26.9	> 43.2	61.6 µM	> 27.7 µM	55.8 µM	> 39.2	> 100	> 100 µM	> 100 µM	> 100 µM	69.7	–	–	–	–	–	–	–
O=C1CC(=O)NC(=NN2C(=O)/C(=C/c3ccc(Cl)c(Cl)c3)N=C2c2ccccc2)N1	> 100	74.9 µM	50.8	> 100	> 100 µM	36.3 µM	> 100 µM	30.3	90.4	34.4 µM	78 µM	34.8 µM	89.8	–	–	–	–	–	–	–
O=C1OCC2OC(=O)c3cc(O)c(O)c(O)c3-c3c(O)c(O)c(O)c4c3C(=O)OC(C2OC(=O)c2cc(O)c(O)c(O)c2-c2c1cc(O)c(O)c2O)C1OC(=O)C2C4=C(O)C(=O)C23Oc2cc(O)c4c(c2[C@H]13)O[C@H](c1ccc(O)c(O)c1)[C@@H](O)C4 (some centres not stated)	53.5	> 100 µM	54	56.7	> 100 µM	> 100 µM	56.6 µM	33.8	42.7	64.4 µM	> 100 µM	42 µM	> 100	–	–	–	–	–	–	–
